The nature of this series: Oral bioavailability in rat. It is filed as ADME, organism-based. The note with it: in vivo.
The bioavailability is dose-corrected exposure relative to a reference, in per cent. `Fc1cc(F)c(-c2cc(Nc3ccncc3)c3cc[nH]c3n2)cc1Cl` yielded a bioavailability of 13%.

Compound `Fc1ccc(-c2cc(Nc3ccncc3)c3cc[nH]c3n2)c(F)c1` gave a bioavailability of 65%.

Compound `C[C@H](O)CNC(=O)c1cnccc1Nc1cc(-c2cc(Cl)ccc2F)nc2[nH]ccc12` yielded a bioavailability of 17%.

`Cc1cnc(-c2cc(Cl)ccc2F)cc1-n1c(=O)n(CC(N)=O)c2cnccc21` [TP-008] had a bioavailability of 62%.
